{
  "source": "ChEMBL document CHEMBL1124710",
  "about": "“Studies on Ca2+ channel antagonists. A 2-diazo-3,3,3-trifluoropropionamide derivative related to verapamil as a potential photoaffinity probe” (J Med Chem, 1990)",
  "key": {"[1]": {"assay": "Binding affinity to displace 0.4 nM of [3H]- gallopamil in rat myocardial membranes", "format": "cell membranes, Myocardium, Membrane"}, "Rattus norvegicus": {"organism": "Rattus norvegicus", "assay": "Effective concentration for negative inotropic effect in rat myocardial ventricular strips", "format": "functional", "conditions": "Cardiac ventricle"}},
  "note": "pEC50, pKi: −log10 of the molar value.",
  "data": [
    {"smiles": "COc1ccc(C(C#N)(CCCN(C)CCc2ccc(N(C)C(=O)C([N+]#N)C(F)(F)F)cc2)C(C)C)cc1OC", "note": "(centres undefined)", "values": [
      {"measurement": "pKi", "setting": "[1]", "result": 7.42},
      {"measurement": "pEC50", "setting": "Rattus norvegicus", "result": 6.98}
    ]},
    {"smiles": "COc1ccc(CCN(C)CCCC(C#N)(c2cc(OC)c(OC)c(OC)c2)C(C)C)cc1OC", "note": "(centres undefined) [GALLOPAMIL]", "values": [
      {"measurement": "pKi", "setting": "[1]", "result": 7.81},
      {"measurement": "pEC50", "setting": "Rattus norvegicus", "result": 7.66}
    ]}
  ]
}
